Assay results published in patent US5202127A, “Moth-proofing method using trioxane as sole active” (Mitsubishi Gas Chemical Co., Inc., priority 1986, dated 1993).

Columns and labels:
[1] = system: larvae of case making clothes moths; assay: killing of case making clothes moth larvae in plugged bottle at 25° C. for 4 hours (Tables 3 and 4); format: in vivo; details: 10 larvae, chemicals in the solid state, 2 g, 4 hours (Table 4)
Procedure: Granular trioxane containing 1 ppm of formic acid and 2 ppm of formaldehyde was dissolved in various organic solvents at a predetermined concentration to prepare organic liquid insect-proofing agents.
Square absorbent cotton piece having a side of 3 cm, which was impregnated with 2 g of the organic liquid insect-proofing agent, was placed in the bottom portion of a glass bottle having a volume of 500 ml, and an insect cage of a metal net having a diameter of 3 cm, which contained 10 larvae of case making clothes moths having a body length of about 6 mm and a square wool fabric having a side of 3 cm, was secured the absorbent cotton 5 cm apart therefrom. Then, the bottle was plugged and allowed to stand in a thermostat chamber maintained at 25° C. for 4 hours. Then, the cage was taken up and the state of the larvae of case making clothes was checked.
Each of p-dichlorobenzene, naphthalene and dl-camphor was used in the form of a granular reagent. […] One pack of "Mothproofing Agent for Drawers" supplied by Dainippon Jochugiku (corresponding to 12.5 liters) was used as the pyrethroid type chemicals. No chemical was used in Comparative Example 13.

[2] = cited from earlier work
[3] = system: larvae of case making clothes moths; assay: test for controlling harmful insects to clothes, case making clothes moth larvae (Table 1); format: in vivo; parameters: key to Eating damage degree after 24 hours: A: no eating damage; B: eating damage was only a trace; C: intermediate between ranks B and D; D: large eating damage (damage in absence of insect-proofing agent); details: for Number of dead insects after 6 hours / Number of dead insects after 24 hours: 10 case making clothes moth larvae, 500 ml bottle, 24° to 26° C.; for Eating damage degree after 24 hours: wool fabric, case making clothes moth larvae
Procedure: (§1) The solid insect-proofing agent was subjected to the test for controlling harmful insects to clothes.
(§2) A glass bottle having a volume of 500 ml was charged with 10 harmful insects and one square wool fabric piece having a side of 3 cm, and one pellet of the solid insect-proofing agent was placed apart from the wool fabric piece. The bottle was tightly plugged and was allowed to stand in the dark place at a temperature of 24° to 26° C.
(§3) For comparison, commercially available moth-proofing agents, p-dichlorobenzene and naphthalene (each was in the form of a flat disk-shaped pellet having a diameter of 21 mm), were similarly tested, and the test was carried out without using any moth-proofing agent.
(§4) The results of the tests conducted on larvae of case making clothes moths having a body length of about 6 mm as the harmful insects (Example 6 and Comparative Examples 1 to 3) are shown in Table 1, and the results of the test conducted on larvae of varied carpet beetles having a body length of about 4 mm as harmful insects (Example 7 and Comparative Examples 4 to 6) are shown in Table 2.

[4] = system: larvae of varied carpet beetles; assay: test for controlling harmful insects to clothes, varied carpet beetle larvae (Table 2); format: in vivo; parameters: key to Eating damage degree after 24 hours: A: no eating damage; B: eating damage was only a trace; C: intermediate between ranks B and D; D: large eating damage (damage in absence of insect-proofing agent); details: for Number of dead insects after 6 hours / Number of dead insects after 24 hours: 10 varied carpet beetle larvae, 500 ml bottle, 24° to 26° C.; for Eating damage degree after 24 hours: wool fabric, varied carpet beetle larvae
Procedure: as §1, §2, §3, §4

[5] = it is said; cited from earlier work
insects = assay: insecticidal force and repellency, general statement; format: in vivo
rats [6] = details: oral administration to rats; cited from earlier work
mice = details: cited from earlier work
rats [7] = details: cited from earlier work
[8] = system: small fruit flies (drosophila); details: cited from earlier work
salmonellae = details: cited from earlier work
[9] = cited from earlier work; remark: listed apart in the source

SMILES	Number of Killed Insects [1]	solubility in water [2]	Number of dead insects after 6 hours [3]	Number of dead insects after 24 hours [3]	Eating damage degree after 24 hours [3]	Number of dead insects after 6 hours [4]	Number of dead insects after 24 hours [4]	Eating damage degree after 24 hours [4]	also measured
CC1(C)[C@@H]2CC[C@@]1(C)C(=O)C2 (relative stereo) [dl-camphor]	0	–	–	–	–	–	–	–	–
CC12CCC(CC1=O)C2(C)C (stereo not drawn) [camphor]	–	hardly soluble or is insoluble in water	–	–	–	–	–	–	–
c1ccc2ccccc2c1 [naphthalene]	0	hardly soluble or is insoluble in water	0	2	B	0	0	C	–
Clc1ccc(Cl)cc1 [p-dichlorobenzene]	2	hardly soluble or is insoluble in water	5	10	A	3	9	A	health effects [5]: causes liver troubles, lung granulomata, cataract and dermatitis
C1OCOCO1 [trioxane, 1,3,5-trioxane]	–	soluble in water	–	–	–	–	–	–	insecticidal force (insects; compared with p-dichlorobenzene): weaker than that of p-dichlorobenzene; repellency to insects (insects; in vivo): sufficient repellency to insects; LD50 (rats [6]): 8,500 mg/kg; mutagenicity (mice): no mutagenicity; mutagenicity (rats [7]): no mutagenicity; mutagenicity [8]: no mutagenicity; mutagenicity (salmonellae): no mutagenicity; solubility in other various organic solvents ([2]; organic solvents other than saturated hydrocarbons): highly soluble; solubility in saturated hydrocarbons ([2]; saturated hydrocarbons): poor; stability in highly acidic aqueous solution ([9]; highly acidic aqueous solution): hydrolyzed; stability in neutral or alkaline aqueous solution ([9]; neutral or alkaline aqueous solution): stable; hydrolyzability ([9]; normal state): very low; stability in air ([9]; normal temperature in air): very stable
